In PMC11956017, “Design of Benzyl-triazolopyrimidine-Based NADPH Oxidase Inhibitors Leads to the Discovery of a Potent Dual Covalent NOX2/MAOB Inhibitor” (Journal of Medicinal Chemistry, 2025):
“Also recorded” adds a separate entry of the source.

How the values were obtained:
[1] = Mass spectrometric analysis of GSH reactivity; settings: GSH 10 µM and compound 10 µM (1:1), ammonium acetate 200 mM, pH 7.4
Experimental: Reactivity between 9a and GSH was measured via mass spectrometry on a Q Exactive UHMR hybrid quadrupole-Orbitrap mass spectrometer (Thermo Fisher) with positive polarity. The instrument parameters used for MS spectra collection were the following: capillary voltage, 1.2 kV; scan range from 350 to 2000 m/z; HCD collision voltage, 0 V; source fragmentation, 0 V; in-source trapping, 0 V. The ion transfer optics was set as follows: injection flatapole, 5 V; inner-flatapole lens, 4 V; bent flatapole, 2 V; transfer multipole, 0 V. The resolution of the instrument was 200,000 at m/z = 400, the nitrogen pressure in the HCD cell was maintained at approximately 9.8 × 10^–11 mbar, and the source temperature was kept at 100 °C. Solutions for flow injection analysis were constituted by dissolving each compound in LC-MS-grade MeOH.

human MAOB = target: T1, human MAOB (Homo sapiens, UniProt P27338); test: Spectrophotometric monitoring of MAOB flavin covalent modification; format: binding
T1 construct: made in house; host or cells: Pichia pastoris
T1 sequence (P27338 1-520): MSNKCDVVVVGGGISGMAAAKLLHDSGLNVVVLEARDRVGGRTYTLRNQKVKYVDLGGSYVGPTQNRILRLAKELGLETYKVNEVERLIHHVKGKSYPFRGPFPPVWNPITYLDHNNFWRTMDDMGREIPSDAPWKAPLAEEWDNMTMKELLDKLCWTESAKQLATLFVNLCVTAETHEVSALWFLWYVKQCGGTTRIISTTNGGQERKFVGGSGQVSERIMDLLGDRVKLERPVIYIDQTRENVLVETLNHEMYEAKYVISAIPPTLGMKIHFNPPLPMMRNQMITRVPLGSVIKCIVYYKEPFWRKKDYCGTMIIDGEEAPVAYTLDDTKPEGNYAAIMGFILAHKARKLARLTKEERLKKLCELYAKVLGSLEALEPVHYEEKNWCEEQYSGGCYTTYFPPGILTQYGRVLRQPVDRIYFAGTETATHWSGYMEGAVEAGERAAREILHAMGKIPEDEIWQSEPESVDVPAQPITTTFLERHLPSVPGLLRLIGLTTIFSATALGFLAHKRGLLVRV
Experimental: IC50 values on human MAOA and human MAOB were determined using the Amplex Red/horseradish peroxidase coupled assay. […] Measurements were performed using a ClarioStar plate reader (excitation 572 nm and emission 583 nm) (BMG Labtech). IC50 values were obtained by fitting the percentage of inhibition versus log(inhibitor concentration) using GraphPad software 7.0. The covalent modification of the flavin upon the reaction with the propargylamine-containing inhibitors was monitored spectrophotometrically using a diode array UV/visible spectrophotometer (Agilent Technologies). […] The cofactor covalent modification was monitored over time following the shift of the enzyme-bound flavin (peaks at 370 and 456 nm) to 410 nm (ε410 = 23,500 M^–1 cm^–1) (Figure S10).

NOX2 [2] = target: T2, NOX2 (Homo sapiens, UniProt P04839); test: NOX2 inhibition upon preactivation with cytosolic partners, washout, cytochrome c reduction; format: biochemical; set-up: NOX2 was expressed as native protein in X-CGD PLB-985 cells transduced with the RD114 pseudotyped MFGS-NOX2 vector; expressed in transfected cells; host or cells: X-CGD PLB-985 cells transduced with MFGS-NOX2; isolated membranes; Cytosolic proteins made in E. coli; settings: 1 mM compound, 60 min, with or without p47phox/p67phox/Rac1, washout, fresh activators
Experimental: More in detail, two different mixtures were prepared simultaneously: a “nonpreactivated NOX2” mixture in the absence of cytosolic partners and a “preactivated NOX2” mixture in the presence of cytosolic partners. NOX2-containing membranes (3.9 mg/mL) were added to a sodium phosphate buffer (65 mM, pH 7.0), 50 μM FAD, and 130 μM LiDS, in the presence or absence of 160 nM p67^phox, p47^phox, and Rac1 Q61L in a final volume of 20 μL. Both mixes were incubated with DMSO (vehicle) or 1 mM of the tested compound for 60 min at 25 °C. The mixtures were then centrifuged (20,000g for 10 min) at 4 °C to gently remove the excess of the inhibitor and, if present, of the activators. The supernatants were discarded to eliminate the excess of the nonbound compound, and the pellets were resuspended in the same volume of the fresh buffer. Subsequently, the resuspended pellets were loaded into a spectrophotometric cuvette at a final concentration of 0.39 mg/mL and incubated with fresh cytosolic activators (160 nM), LiDS (130 μM), and cytochrome c (200 μM) for 10 min at 25 °C. […] The reaction was then initiated with 240 μM NADPH and monitored at 550 nm with a Cary 100 UV–vis spectrophotometer (Varian).

NOX2 [3] = target: T2, NOX2; test: Human NOX2 isolated membranes, cytochrome c assay; format: biochemical; set-up: NOX2 was expressed as native protein in X-CGD PLB-985 cells transduced with the RD114 pseudotyped MFGS-NOX2 vector; expressed in transfected cells; host or cells: X-CGD PLB-985 cells transduced with MFGS-NOX2; isolated membranes; Cytosolic proteins made in E. coli; settings: membrane-embedded NOX2; n = 1; read-out: IC50 NOX2 measured with the cytochrome c assay
Experimental: The strong activity of NOX2 enabled the use of the peroxide-independent MCLA and cytochrome c assays that probe superoxide formation. IC50 determinations were performed as described, with the same aforementioned modifications for covalent inhibition. Briefly, 20 μg of NOX2-p22^phox membranes was added to a reaction mix with a 65 mM sodium phosphate buffer (pH 7.0), 0.5 μM FAD, 130 μM LiDS, 160 nM p67^phox, p47^phox, Rac1 Q61L, and 1 μM MCLA or 200 μM bovine cytochrome c. The estimated final protein concentration based on the heme’s absorbance was 60 nM. Compounds were incubated for 1 h at 25 °C, at varying concentrations. The reaction started by adding 240 μM NADPH, and measurements were taken by using a GloMax plate reader (Promega; MCLA) or a Cary 100 UV–vis spectrophotometer (Varian; cytochrome c).

BV2 cells = test: ROS detection with CellROX Deep Red in BV2 cells; format: cell-based, murine; settings: 10 μM, LPS/IFN-γ stimulation, 48 h
Experimental: BV2 murine microglial cells were cultured in DMEM supplemented with 10% heat-inactivated FBS, 100 IU/mL penicillin G, […] streptomycin, and […] amphotericin B and grown at 37 °C in 5% CO2 and a humidified atmosphere. […] After 30 min, LPS 100 ng/mL and IFN-γ 20 ng/mL were added to the medium for an additional 48 h. After treatment, BV2 cells were incubated with a CellROX Deep Red reagent (cat. no. C10422) at 5 μM and incubated for 30 min at 37 °C as indicated by the manufacturer protocol. ROS levels were measured by a spectrofluorometer, taking as 100% the median fluorescence intensity of cells treated with the vehicle.

- MAOB cofactor modified at the final time point (human MAOB; after 30 min of incubation): 18.4 µM
- calculated inhibited fraction of MAOB (human MAOB; after 30 min of incubation): 91.8%
- retention of inhibitor by NOX2 after washout, resting vs activated state (NOX2 [2]): retained only by the activated
- IC50 (NOX2 [3]): 770 nM
SMILES: C#CCN(C)Cc1ccc(Cn2nnc3c(Sc4nc5ccccc5o4)ncnc32)cc1 [Compound 9a, N-(4-((7-(Benzo[d]oxazol-2-ylthio)-3H-[1,2,3]triazolo[4,5-d]pyrimidin-3-yl)methyl)benzyl)-N-methylprop-2-yn-1-amine]
- adduct formation with glutathione [1]: readily reacted with GSH; also recorded: able to form an adduct with glutathione
- covalent flavin adduct with MAOB (absorbance shift to 410 nm) (human MAOB; 5-fold molar excess over 20 μM protein): formation of a covalent N-methyl-N-propargylamine-flavin adduct
- ROS levels in BV2 cells (BV2 cells): decrease the ROS levels; also recorded: strongest ROS-dumping activity
